Results reported in patent publication US20250333418A1, “PURINE COMPOUNDS, COMPOSITIONS COMPRISING THEM AND USES THEREOF” (Novo Nordisk A/S, priority 2022, published 2025).

What was measured:
human CB1 receptor [1] = biological target: T1, human CB1 receptor (Homo sapiens, UniProt P21554); experiment: bioSensAll GAPL-Gi2 BRET biosensor assay in HEK293 cells transfected with hCB1; test compound added before EC75-80 of agonist CP55,940 (0.1 nM); format: cell-based; conditions: vs CP55,940 0.1 nM (EC75-80), read-out: CB1 wt Gi2 IC50
T1 construct: expressed in transfected cells; host or cells: HEK293
In short: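 Test compounds at 12 doses up to 600 nM preceded a 0.1 nM CP55,940 challenge in hCB1/GAPL-Gi2 HEK293 cells. After overnight 37° C incubation, methoxy e-coelenterazine (2 µM final) was added and the 515/400 nm BRET ratio normalized to positive and negative controls.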

human CB1 receptor [2] = biological target: T1, human CB1 receptor; experiment: bioSensAll β-arrestin2 plasma membrane translocation (+GRK2) BRET biosensor assay in HEK293 cells transfected with hCB1; test compound added before EC75-80 of agonist CP55,940 (100 nM); format: cell-based; conditions: βArrestin2 (+GRK2) BRET biosensor, vs CP55,940 100 nM (EC75-80), read-out: CB1 wt βarr2 IC50
In short: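 HEK293 cells co-transfected with hCB1 and β-arrestin2 PM-translocation BRET biosensor (+GRK2); 48 h post-transfection in HBSS, test compound (0–600 nM, 12 points) added 3–5 min before CP55,940 at 100 nM (EC75-80). Overnight incubation at 37 °C; BRET (515/400 nm) read after 2 µM e-coelenterazine Prolume Purple, standardized to controls.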

T1 sequence (P21554 whole entry): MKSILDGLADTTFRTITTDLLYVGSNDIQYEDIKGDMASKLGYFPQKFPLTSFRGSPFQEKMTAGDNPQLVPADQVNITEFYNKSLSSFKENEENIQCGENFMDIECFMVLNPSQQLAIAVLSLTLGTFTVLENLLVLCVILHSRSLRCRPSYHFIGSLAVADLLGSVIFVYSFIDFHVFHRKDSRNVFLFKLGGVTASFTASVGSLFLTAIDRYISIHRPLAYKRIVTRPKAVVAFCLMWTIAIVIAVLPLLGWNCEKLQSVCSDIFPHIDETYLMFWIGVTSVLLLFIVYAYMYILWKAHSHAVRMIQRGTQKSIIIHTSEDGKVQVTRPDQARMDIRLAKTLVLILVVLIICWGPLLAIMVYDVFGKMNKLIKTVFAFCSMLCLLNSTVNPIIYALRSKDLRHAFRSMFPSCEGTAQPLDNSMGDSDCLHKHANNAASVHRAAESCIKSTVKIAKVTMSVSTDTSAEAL

Q: For `CC1(C(N)=O)CCN(c2nc(N3CCC[C@H]3CO)nc3c2nc(-c2ccccc2Cl)n3-c2ccc(Cl)cc2)CC1` [Compound 20, 1-[8-(2-chlorophenyl)-9-(4-chlorophenyl)-2-[(2S)-2-(hydroxymethyl)pyrrolidin-1-yl]purin-6-yl]-4-methyl-piperidine-4-carboxamide], which IC50 (human CB1 receptor [1]) is on record?
A: 0.255 nM

Q: What about the IC50 (human CB1 receptor [2]) of the same compound?
A: 0.568 nM

Q: With `CCOC(=O)c1cn(-c2nc(N3CCC(C)(C(N)=O)CC3)c3nc(-c4ccccc4Cl)n(-c4ccc(Cl)cc4)c3n2)cn1` [Compound 69, ethyl 1-[6-(4-carbamoyl-4-methyl-1-piperidyl)-8-(2-chlorophenyl)-9-(4-chlorophenyl)purin-2-yl]imidazole-4-carboxylate] as the compound, how does the IC50 (human CB1 receptor [1]) read?
A: 41.9 nM

Q: What about the IC50 (human CB1 receptor [2]) of the same compound?
A: 117 nM

Q: For `CC(=O)NC(=N)Nc1nc(N2CCC(C(F)(F)F)CC2)c2nc(-c3ccccc3Cl)n(-c3ccc(Cl)cc3)c2n1` [Compound 34, N—[N-[8-(2-chlorophenyl)-9-(4-chlorophenyl)-6-[4-(trifluoromethyl)-1-piperidyl]purin-2-yl]carbamimidoyl]acetamide], which IC50 (human CB1 receptor [1]) is on record?
A: 6.62 nM

Q: And the IC50 (human CB1 receptor [2])?
A: 17.6 nM

Q: With `OC[C@@H]1CCCN1c1nc(-c2ccc(C(F)(F)F)nc2)c2nc(-c3ccccc3Cl)n(-c3ccc(Cl)cc3)c2n1` [Compound 163] as the compound, how does the IC50 (human CB1 receptor [1]) read?
A: 0.491 nM

Q: And the IC50 (human CB1 receptor [2])?
A: 2.78 nM

Q: How did the IC50 (human CB1 receptor [1]) turn out when `CN1CCC[C@H]1COc1nc(N2CCC(C)(C(N)=O)CC2)c2nc(-c3ccccc3Cl)n(-c3ccc(Cl)cc3)c2n1` [Compound 117, 1-[8-(2-chlorophenyl)-9-(4-chlorophenyl)-2-[[(2S)-1-methylpyrrolidin-2-yl]methoxy]purin-6-yl]-4-methyl-piperidine-4-carboxamide] was run?
A: 1.64 nM

Q: What about the IC50 (human CB1 receptor [2]) of the same compound?
A: 3.76 nM

Q: `CCNC1(C(N)=O)CCN(c2nc(NCCO)nc3c2nc(-c2ccccc2Cl)n3-c2ccc(Cl)cc2)CC1` [Compound 141] was tested. Which IC50 (human CB1 receptor [1]) did it give?
A: 0.982 nM

Q: What about the IC50 (human CB1 receptor [2]) of the same compound?
A: 2.28 nM

Q: What does the source list for `CN(CCO)c1nc(NC2CCOCC2)c2nc(-c3ccccc3Cl)n(-c3ccc(Cl)cc3)c2n1` [Compound 178]?
A: IC50 (human CB1 receptor [1]): 0.544 nM; IC50 (human CB1 receptor [2]): 4.04 nM

Q: For `CCNC1(C(N)=O)CCN(c2nc(NCc3ccccc3)nc3c2nc(-c2ccccc2Cl)n3-c2ccc(Cl)cc2)CC1` [Compound 151], which IC50 (human CB1 receptor [1]) is on record?
A: 4.46 nM

Q: And the IC50 (human CB1 receptor [2])?
A: 12.9 nM

Q: For `CCN1CCN(c2nc(OCC(C)(C)O)nc3c2nc(-c2ccccc2Cl)n3-c2ccc(Cl)cc2)CC1` [Compound 240], which IC50 (human CB1 receptor [1]) is on record?
A: 5.79 nM

Q: And the IC50 (human CB1 receptor [2])?
A: 12.2 nM

Q: With `CN(CCO)c1nc(NC2CN(C(N)=O)C2)c2nc(-c3ccccc3Cl)n(-c3ccc(Cl)cc3)c2n1` [Compound 176] as the compound, how does the IC50 (human CB1 receptor [1]) read?
A: 15.6 nM

Q: And the IC50 (human CB1 receptor [2])?
A: > 5000 nM

Q: `CN(CCO)c1nc(N2CC(C(N)=O)C2)c2nc(-c3ccccc3Cl)n(-c3ccc(Cl)cc3)c2n1` [Compound 72] was tested. Which IC50 (human CB1 receptor [1]) did it give?
A: 1.1 nM

Q: What about the IC50 (human CB1 receptor [2]) of the same compound?
A: 3.81 nM

Q: With `C[C@@H](O)CN(C)c1nc(N2CCC(C)(C(N)=O)CC2)c2nc(-c3ccccc3Cl)n(-c3ccc(Cl)cc3)c2n1` [Compound 54, 1-[8-(2-chlorophenyl)-9-(4-chlorophenyl)-2-[[(2R)-2-hydroxypropyl]-methyl-amino]purin-6-yl]-4-methyl-piperidine-4-carboxamide] as the compound, how does the IC50 (human CB1 receptor [1]) read?
A: 0.427 nM

Q: And the IC50 (human CB1 receptor [2])?
A: 1.12 nM

Q: `O=S1(=O)CCC(Nc2nc(N3CCC[C@H]3CO)nc3c2nc(-c2ccccc2Cl)n3-c2ccc(Cl)cc2)CC1` [Compound 166] was tested. Which IC50 (human CB1 receptor [1]) did it give?
A: 0.308 nM

Q: And the IC50 (human CB1 receptor [2])?
A: 1.4 nM

Q: Which IC50 (human CB1 receptor [1]) does the source give for `CC(C)(O)COc1nc(-c2ccc(C(F)(F)F)nc2)c2nc(-c3ccccc3Cl)n(-c3ccc(Cl)cc3)c2n1` [Compound 123] here?
A: 0.876 nM

Q: And the IC50 (human CB1 receptor [2])?
A: 2.04 nM

Q: With `CN1C[C@H](F)C[C@H]1COc1nc(N2CCC(C)(C(N)=O)CC2)c2nc(-c3ccccc3Cl)n(-c3ccc(Cl)cc3)c2n1` [Compound 228] as the compound, how does the IC50 (human CB1 receptor [1]) read?
A: 1.2 nM

Q: What about the IC50 (human CB1 receptor [2]) of the same compound?
A: 2.29 nM

Q: With `CN(CCO)c1nc(N2CCC(C)(C(N)=O)CC2)c2nc(-c3ccccn3)n(-c3ccc(Cl)cc3)c2n1` [Compound 63, 1-[9-(4-chlorophenyl)-2-[2-hydroxyethyl(methyl)amino]-8-(2-pyridyl)purin-6-yl]-4-methyl-piperidine-4-carboxamide] as the compound, how does the IC50 (human CB1 receptor [1]) read?
A: 9.9 nM

Q: What about the IC50 (human CB1 receptor [2]) of the same compound?
A: 65.1 nM

Q: Which results are given for `CC(C)(O)COc1nc(N2CCC(C)(C(=O)O)CC2)c2nc(-c3ccccc3Cl)n(-c3ccc(Cl)cc3)c2n1` [Compound 220]?
A: IC50 (human CB1 receptor [1]): 3.47 nM; IC50 (human CB1 receptor [2]): 23.2 nM

Q: How did the IC50 (human CB1 receptor [1]) turn out when `CC1(C(N)=O)CCN(c2nc(N3CCS(=O)(=O)CC3)nc3c2nc(-c2ccccc2Cl)n3-c2ccc(Cl)cc2)CC1` [Compound 16, 1-[8-(2-chlorophenyl)-9-(4-chlorophenyl)-2-(1,1-dioxo-1,4-thiazinan-4-yl)purin-6-yl]-4-methyl-piperidine-4-carboxamide] was run?
A: 0.315 nM

Q: And the IC50 (human CB1 receptor [2])?
A: 1.51 nM

Q: With `CC(C)C(=O)Nc1nc(N2CCC(C)(C(N)=O)CC2)c2nc(-c3ccccc3Cl)n(-c3ccc(Cl)cc3)c2n1` [Compound 1, 1-[8-(2-chlorophenyl)-9-(4-chlorophenyl)-2-(2-methylpropanoylamino)purin-6-yl]-4-methyl-piperidine-4-carboxamide] as the compound, how does the IC50 (human CB1 receptor [1]) read?
A: 4.3 nM

Q: What about the IC50 (human CB1 receptor [2]) of the same compound?
A: 15.2 nM

Q: With `C[C@H](CO)N(C)c1nc(N2CCC(C)(C(N)=O)CC2)c2nc(-c3ccccc3Cl)n(-c3ccc(Cl)cc3)c2n1` [Compound 67, 1-[8-(2-chlorophenyl)-9-(4-chlorophenyl)-2-[[(1R)-2-hydroxy-1-methyl-ethyl]-methyl-amino]purin-6-yl]-4-methyl-piperidine-4-carboxamide] as the compound, how does the IC50 (human CB1 receptor [1]) read?
A: 1.27 nM

Q: And the IC50 (human CB1 receptor [2])?
A: 4.38 nM

Q: With `CC1(C(N)=O)CCN(c2nc(OCCNS(C)(=O)=O)nc3c2nc(-c2ccccc2Cl)n3-c2ccc(Cl)cc2)CC1` [Compound 61, 1-[8-(2-chlorophenyl)-9-(4-chlorophenyl)-2-[2-(methanesulfonamido)ethoxy]purin-6-yl]-4-methyl-piperidine-4-carboxamide] as the compound, how does the IC50 (human CB1 receptor [1]) read?
A: 0.645 nM

Q: And the IC50 (human CB1 receptor [2])?
A: 16.7 nM

Q: Which IC50 (human CB1 receptor [1]) does the source give for `C[C@H](CO)Oc1nc(N2CCC(C)(C(N)=O)CC2)c2nc(-c3ccccc3Cl)n(-c3ccc(Cl)cc3)c2n1` [Compound 81, 1-[8-(2-chlorophenyl)-9-(4-chlorophenyl)-2-[(1R)-2-hydroxy-1-methyl-ethoxy]purin-6-yl]-4-methyl-piperidine-4-carboxamide] here?
A: 0.896 nM

Q: And the IC50 (human CB1 receptor [2])?
A: 4.9 nM

Q: Which IC50 (human CB1 receptor [1]) does the source give for `CC(C)C(=O)Nc1nc(N2CCC(C)(C#N)CC2)c2nc(-c3ccccc3Cl)n(-c3ccc(Cl)cc3)c2n1` [Compound 89, N-[8-(2-chlorophenyl)-9-(4-chlorophenyl)-6-(4-cyano-4-methyl-1-piperidyl)purin-2-yl]-2-methyl-propanamide] here?
A: 0.789 nM

Q: And the IC50 (human CB1 receptor [2])?
A: 2.31 nM

Q: How did the IC50 (human CB1 receptor [1]) turn out when `CC(C)Oc1nc(N(C)CCO)nc2c1nc(-c1ccccc1Cl)n2-c1ccc(Cl)cc1` [Compound 189] was run?
A: 0.419 nM

Q: And the IC50 (human CB1 receptor [2])?
A: 1.35 nM

Q: For `CC(C)(O)COc1nc(N2C[C@@H]3C[C@H]2CO3)c2nc(-c3ccccc3Cl)n(-c3ccc(Cl)cc3)c2n1` [Compound 204], which IC50 (human CB1 receptor [1]) is on record?
A: 3.96 nM

Q: What about the IC50 (human CB1 receptor [2]) of the same compound?
A: 16.6 nM

Q: Which IC50 (human CB1 receptor [1]) does the source give for `CCOC1(C(N)=O)CN(c2nc(OCC(C)(C)O)nc3c2nc(-c2ccc(C#N)nc2)n3-c2ccc(Cl)cc2)C1` [Compound 139, 1-[9-(4-chlorophenyl)-8-(6-cyano-3-pyridyl)-2-(2-hydroxy-2-methyl-propoxy)purin-6-yl]-3-ethoxy-azetidine-3-carboxamide] here?
A: 7.55 nM

Q: And the IC50 (human CB1 receptor [2])?
A: 58.8 nM

Q: What does the source list for `OC[C@H]1CCCN1c1nc(N2CCC(C(F)(F)F)CC2)c2nc(-c3ccccc3Cl)n(-c3ccc(Cl)cc3)c2n1` [Compound 29, [(2R)-1-[8-(2-chlorophenyl)-9-(4-chlorophenyl)-6-[4-(trifluoromethyl)-1-piperidyl]purin-2-yl]pyrrolidin-2-yl]methanol]?
A: IC50 (human CB1 receptor [1]): 6.92 nM; IC50 (human CB1 receptor [2]): > 5000 nM
